One data set relates to LNCaP tumors. Briefly: Radiation dosimetry calculation, unit density sphere model. The arrangement: species or system mice. As for the experimental part: Internal dosimetry estimates were calculated using the organ level internal dose assessment (OLINDA) software v.2.0.^37 These estimates were performed for the mouse using the 25 g MOBY phantom,^38 for humans using the NURBS model for the adult male,^39 and for the tumors using the previously reported unit density sphere model.^40 All the phantoms and the sphere model are available in OLINDA and require the input of the total number of decays normalized by injected activity in units of MBq×h/MBq for each of the source organ/tumor.
Lastly, the numbers of decays in the tumors were also calculated based on the biodistribution data of the mice and the values were inputted into the sphere model available in OLINDA.

Data set [1] deals with mice bearing LNCaP tumor xenografts. The experiment in a line: SPECT/CT imaging of 177Lu-labeled compounds. Format: in vivo. As to conditions: for size of LNCaP tumor xenografts over time: injection of about 37 MBq, SPECT/CT. As for the experimental part:
(§1) SPECT/CT imaging and biodistribution were performed using NOD-scid IL2Rgammanu^null (NSG) male mice, and the endoradiotherapy study was conducted using NOD.Cg-Rag1^tm1MomII2rg^tm1WjI/SzJ (NRG) male mice. The mice were maintained and the experiments were conducted in according to the guidelines established by the Canadian Council on Animal Care and approved by Animal Ethics Committee of the University of British Columbia. Mice were anesthetized by inhalation with 2% isoflurane in oxygen, and implanted subcutaneously with 1×10^7 LNCaP cells posterior to the left shoulder. Mice were used for studies when the tumor reached 5-8 mm in diameter 5-6 weeks after inoculation.
SPECT/CT imaging experiments were conducted using the MILabs (Utrecht, the Netherlands) U-SPECT-II/CT scanner. Each tumor-bearing mouse was injected with ≠37 MBq of ^177Lu-labeled PSMA-617 or HTK01169 through the tail vein under anesthesia (2% isoflurane in oxygen). The mice were allowed to recover and roam freely in their cage and imaged at 4, 24, 72 and 120 hours after injection. At each time point, the mice were sedated again and positioned in the scanner. A 5-min CT scan was conducted first for anatomical reference with a voltage setting at 60 kV and current at 615 μA followed by a 60-min static emission scan acquired in list mode using an ultra-high resolution multi-pinhole rat-mouse (1 mm pinhole size) collimator. Data were reconstructed using the U-SPECT II software with a 20% window width on three energy windows. The photopeak window was centered at 208 keV, with lower scatter and upper scatter windows centered at 170 and 255 keV, respectively. The images were reconstructed using the ordered subset expectation maximization algorithm (3 iterations, 16 subsets), and a 0.5 mm post-processing Gaussian filter. Images were decay corrected to injection time in PMOD (PMOD Technologies, Switzerland) then converted to DICOM for qualitative visualization in the Inveon Research Workplace software (Siemens Medical Solutions USA, Inc.).

For another data set, the system named is LNCaP tumor-bearing mice. Briefly: Endoradiotherapy study. Type of data set: in vivo. The settings on record: for Median survival: n=8. As for the experimental part: as §1
For radiotherapy study, tumor-bearing mice were injected with saline (the control group), ^177Lu-PSMA-617 (18.5 MBq) or ^177Lu-HTK01169 (18.5, 9.3, 4.6, or 2.3 MBq) (n=8 per group). Tumor size and body weight were measured twice a week from the date of injection (Day 0) until completion of the study (Day 120). Endpoint criteria were defined as >20% weight loss, tumor volume >1000 mm^3, or active ulceration of the tumor.

As to `O=C([O-])CN1CCN(CC(=O)[O-])CCN(CC(=O)NCC2CCC(C(=O)N[C@@H](Cc3ccc4ccccc4c3)C(=O)NCCCC[C@H](NC(=O)N[C@@H](CCC(=O)O)C(=O)O)C(=O)O)CC2)CCN(CC(=O)[O-])CC1.[177Lu+3]` (some centres unmarked) [^177Lu-PSMA-617, reference compound], the “kinetic uptake value used as input in OLINDA” value in the data set with LNCaP tumors was 3.80 MBq-h/MBq. In addition, the excretion pathway result in data set [1] (SPECT/CT images) was “excreted mainly via the renal pathway”. The “size of LNCaP tumor xenografts over time” value in data set [1] is “quick reduction in size”. Besides, the “change of tumor size over time” value in the data set on LNCaP tumor-bearing mice (18.5 MBq) is on record as “shrank initially but grew back later”. This compound showed a Median survival in the data set on LNCaP tumor-bearing mice (18.5 MBq injected) of 58 days.

Turning to `O=C([O-])CN1CCN(CC(=O)[O-])CCN(CC(=O)NCCCC[C@H](NC(=O)[C@H](CCC(=O)O)NC(=O)CCCc2ccc(I)cc2)C(=O)NC[C@H]2CC[C@H](C(=O)N[C@@H](Cc3ccc4ccccc4c3)C(=O)NCCCC[C@H](NC(=O)N[C@@H](CCC(=O)O)C(=O)O)C(=O)O)CC2)CCN(CC(=O)[O-])CC1.[177Lu+3]` [^177Lu-HTK01169], in the data set with LNCaP tumors, the “kinetic uptake value used as input in OLINDA” value is given as 31.72 MBq-h/MBq. Also, in data set [1] (SPECT/CT images), the excretion pathway result is listed as “excreted mainly via the renal pathway”. Besides, the “tumor uptake (qualitative)” value in data set [1] (SPECT/CT images, compared with 177Lu-PSMA-617) was “Higher and sustained tumor uptake”. The “renal retention (qualitative)” value in data set [1] (SPECT/CT images, early time points (4 and 24 h), compared with 177Lu-PSMA-617) was “higher renal retention”. Further, the “size of LNCaP tumor xenografts over time” value in data set [1] is reported as “quick reduction in size”. The “change of tumor size over time, dependence on injected radioactivity” value with LNCaP tumor-bearing mice (2.3-18.5 MBq) is “higher radioactivity leading to more effective and prolonged tumor growth inhibition”. For the same compound, the Median survival is 28 days with LNCaP tumor-bearing mice (2.3 MBq injected), 61 days in the data set with LNCaP tumor-bearing mice (4.6 MBq injected), 103 days in the data set with LNCaP tumor-bearing mice (9.3 MBq injected) and above 120 days with LNCaP tumor-bearing mice (18.5 MBq injected). In addition, the “survival until end of study (Day 120)” value with LNCaP tumor-bearing mice (18.5 MBq) is on record as “survived until the end of the study”. For the same compound, the “administered activity needed for similar treatment efficacy, relative to 177Lu-PSMA-617” value with LNCaP tumor-bearing mice (mouse, in vivo) was “only a quarter”.

The values are drawn from patent US20200339625A1, “NOVEL RADIOMETAL-BINDING COMPOUNDS FOR DIAGNOSIS OR TREATMENT OF PROSTATE SPECIFIC MEMBRANE ANTIGEN-EXPRESSING CANCER” (PROVINCIAL HEALTH SERVICES AUTHORITY, priority 2017, published 2020).
